Legend:
[1] = type: physicochemical; settings: 0.5 %
Protocol: Compounding Conditions for stable gentian violet:
Barrel Temperatures: • Zone 1-5=170° C. • Zone 6=175° C.,
Compounding Temperature for degraded gentian violet:
Compounding was performed with Sigma Aldrich ACS grade gentian violet, lot 016K3691. HPLC analysis was performed by cutting and measuring 1 cm segments of each formulation (n=3) using the method described in Examples I and II.
The chromatograms in FIGS. 5-10 show the stable gentian violet followed by the degraded gentian violet, at 588 nm, 253 nm, and 280 nm. The degradation peaks from the 217° C. sample are evident as the new peaks at 253 and 280 nm wavelengths. The chromatogram of the low processing temperature was identical to that of the Gentian Violet raw material.

[2] = Decolorization of GV: photo-oxidation with H2O2 under UV light (Protocol 1); type: physicochemical; settings: 0.1% GV in 3% H2O2 and agar stain
Protocol: (§1) Protocol 1. Photo-oxidation of GV with H2O2 • 1.1. 0.15 g GV (0.1% w/v) was dissolved in 150 ml 3% H2O2. The solution was exposed to UV light (Bio-lab hood) for 2 hours. 5 ml of solution was extracted out, in increments of 5 mins. • 1.2. 10 μl of 0.1% GV in DI water was spiked onto a plated agar plate. After staining of the agar plate (evaporation of most of the water from the spiked drop), H2O2 was pipetted onto the stain in increments of 50 μl every 5 mins for 2 hours, under the UV light. Protocol 2. Oxidation of GV by activation of H2O2 with Ag • 2.1. 10.6 mg of nano-particle Silver was mixed into 40 ml 3% H2O2 with constant stirring. 0.1% GV in water was added at various increments (10 μl-1 ml) until purple color persisted. Molar concentration ratios (GV:Ag) were calculated to determine the molar ratio where GV is no longer oxidized. • 2.2 10 μl of 0.1% GV in DI water was spiked onto a plated agar plate. After staining of the agar plate (evaporation of most of the water from the spiked drop), 0.009 g of Ag was applied to the surface of the stain and 100 μl of H2O2 was pipette onto the Ag. Protocol 3. Oxidation of GV by activation of H2O2 with Vitamin C 1% Vitamin C (w/v) was dissolved in 100 ml 3% H2O2. 7 g of TRIS buffer was also dissolved in the H2O2. 0.1% GV in water was added at increments of 10 μl until the purple color persisted.

[3] = Decolorization of GV: activation of H2O2 with nano-particle silver (Protocol 2); type: physicochemical
Protocol: as §1

[4] = Decolorization of GV: activation of H2O2 with Vitamin C (Protocol 3); type: physicochemical; settings: 1% Vitamin C in 3% H2O2, TRIS, pH 6-7, first 10 μl of 0.1% GV
Protocol: as §1

processing temperature at which extruded gentian violet degrades [1]: 217 °C
color change of GV [2]: No color change
color change of GV solution ([3]; 0.1% GV pipetted into Ag + 3% H2O2 solution): fade to a faint yellow color
color of solution after GV addition [4]: remained purple
SMILES: CN(C)c1ccc(C(=C2C=CC(=[N+](C)C)C=C2)c2ccc(N(C)C)cc2)cc1 [gentian violet]
color change of GV stain on agar ([3]; 10 μl 0.1% GV stain, Ag + 100 μl H2O2): turn to a faint yellow color after 10 mins
